Test results from patent US5773444A, “Quinazolines as inhibitors of endothelin converting enzyme” (Warner-Lambert Company, priority 1997, dated 1998).
Structures can show the parent of a compound that is named as a salt. Where two headings read alike, the source gives them in different places. Non-standard residues stand in square brackets, D forms with d. Residues, ends and D or L forms follow the SMILES beside them. *: point of attachment. Sta = CC(C)C[C@H](N)[C@@H](O)CC(=O)O; Isovaleryl = CC(C)CC(=O)*

T1: endothelin converting enzyme (ECE) (Homo sapiens, UniProt P42892)
T1 construct: ECE was partially purified from EA.hy926 grown in 150 roller; endogenous in cells; host or cells: EA.hy926 (human umbilical vein endothelial cells fused with A549); detergent-solubilised membranes, RCA-I lectin eluate
T1 sequence (P42892 whole entry, looked up): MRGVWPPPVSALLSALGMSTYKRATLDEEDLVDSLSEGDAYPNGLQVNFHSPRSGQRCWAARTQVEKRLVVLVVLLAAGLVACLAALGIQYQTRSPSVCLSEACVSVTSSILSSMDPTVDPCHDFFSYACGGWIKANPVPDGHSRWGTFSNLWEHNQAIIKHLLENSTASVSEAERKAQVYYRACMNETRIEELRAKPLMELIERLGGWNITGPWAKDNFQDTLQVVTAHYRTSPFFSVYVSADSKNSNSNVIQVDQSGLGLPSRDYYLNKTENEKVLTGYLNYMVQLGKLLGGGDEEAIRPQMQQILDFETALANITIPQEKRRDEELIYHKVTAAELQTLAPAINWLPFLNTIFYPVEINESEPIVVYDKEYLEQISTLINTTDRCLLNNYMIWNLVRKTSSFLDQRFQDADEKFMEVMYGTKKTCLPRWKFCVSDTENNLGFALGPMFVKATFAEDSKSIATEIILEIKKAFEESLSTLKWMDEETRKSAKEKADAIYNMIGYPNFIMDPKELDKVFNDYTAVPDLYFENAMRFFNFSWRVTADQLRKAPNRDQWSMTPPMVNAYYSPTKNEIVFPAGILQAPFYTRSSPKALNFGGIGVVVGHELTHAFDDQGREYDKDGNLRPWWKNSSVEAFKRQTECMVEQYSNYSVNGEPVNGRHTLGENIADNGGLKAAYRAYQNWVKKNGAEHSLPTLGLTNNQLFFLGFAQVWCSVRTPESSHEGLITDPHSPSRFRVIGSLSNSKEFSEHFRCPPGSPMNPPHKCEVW

B1: soybean trypsin inhibitor: soybean trypsin inhibitor (protein, UniProt P01070 25-205, looked up)
Trypsin inhibitor A: DFVLDNEGNPLENGGTYYILSDITAFGGIRAAPTGNERCPLTVVQSRNELDKGIGTIISSPYRIRFIAEGHPLSLKFDSFAVIMLCVGIPTEWSVVEDLPEGPAVKIGENKDAMDGWFRLERVSDDEFNNYKLVFCPQQAEDDKCGDIGISIDHDDGTRRLVVSKNKPLVVQFQKLDKESL

Key:
[1] = target: T2, endothelin converting enzyme (ECE) (Homo sapiens, UniProt P42892); assay: ECE assay (partially purified ECE from EA.hy926, ET-1 production by RIA); type: biochemical; conditions: for IC50: 10 μM big ET-1, pH 7.0, 1.5 hours at 37° C., 3% DMSO, read-out: IC50 (Table III, Biological Activity of Compounds of the Present Invention)
T2 construct: ECE was partially purified from EA.hy926 grown in 150 roller; endogenous in cells; host or cells: EA.hy926 (human umbilical vein endothelial cells fused with A549); detergent-solubilised membranes, RCA-I lectin eluate

[2] = target: T2, endothelin converting enzyme (ECE); assay: Cell-based assay (ET-1 level in medium of EA.hy926 cells by RIA); conditions: read-out: IC50 (Table IV, cell-based assay)
Protocol: A permanent human cell line (EA.hy926), derived by fusing human umbilical vein endothelial cells with the permanent human cell line A549 (derived from a human lung carcinoma), was cultured as described, except that the medium also contained HAT supplements (100 μM hypoxanthine, 0.4 μM aminopterin, 16 μM thymidine). Edgell, C.-J. S., McDonald, C. C., and Graham, J. B. (1983) Proc. Natl. Acad. Sci. USA 80, 3734-3737. Cells from passages 40 to 50 were used. Subcultures were prepared by treating confluent cells with trypsin (0.5%) and seeded either onto 24 well plates for a cell-based assay or onto roller bottles for a partial purification of the enzyme.
ET-1 was measured by radioimmunoassay (RIA) as described previously with minor modifications. Ahn, K., Beningo, K., Olds, G., and Hupe, D. (1992) Proc. Nat. Acad. Sci. USA, 89, 8606-8610. Briefly, the RIA mixture (250 μl) contained the antibody against ET-1, an ET-1 sample, and [^125 I] ET-1 (15000 cpm) in buffer D. For the analysis of ET-1 from cell based assays, the final 6% bovine serum albumin was added. […] The amount of immunoreactive (ir) ET-1 was measured by counting the supernatant and determined from the standard curve. […]
EAhy926 cells (0.2-4×10^4) were seeded into 24-plates and cultures as described above. […] The ET-1 level from these samples were measured by RIA previously described. […]

[3] = system: ET-1 production in cultured bovine aortic endothelial cells; conditions: intracellular accumulation of pepstatin; cited from earlier work
[4] = system: neutral endopeptidase 24.11 (NEP 24.11); assay: NEP 24.11 inhibition under ECE assay conditions; type: biochemical, human; conditions: 100 μM thiorphan or 100 nM phosphoramidon
Excerpt: The cell line, EA.hy926, contains neutral endopeptidase 24.11 (NEP 24.11) which also cleaves big ET-1 to ET-1 and c-terminal fragment (manuscript submitted). […] All the data were obtained in the linear range of time-course curves.

[5] = target: T1, endothelin converting enzyme (ECE); assay: ECE assay (partially purified ECE from EA.hy926, ET-1 production by RIA); type: biochemical; conditions: partially purified ECE from EA.hy926
[6] = partially purified ECE from EA.hy926

Molecule	inhibition of the enzyme (in words) [1, 6]	IC50 [1]	other results
c1cnc2c(c1)ccc1cccnc12 [1,10-phenanthroline]	inhibited	–	–
O=C(O)CN(CCN(CC(=O)O)CC(=O)O)CC(=O)O [EDTA]	–	–	inhibition of the enzyme (in words) [1]: inhibited
O=C(O)CN(CCOCCOCCN(CC(=O)O)CC(=O)O)CC(=O)O [EGTA]	inhibited	–	–
CCN1CCCC(Nc2nc(C(Cl)(Cl)Cl)nc3ccc(I)cc23)C1 (stereo not drawn) [Example 1, (1-Ethyl-piperidin-3-yl)-(6-iodo-2-trichloromethyl-quinazolin-4-yl)-amine, Monohydrochloride]	–	4.2 ± 0.5 µM	IC50 [2]: 6.6 ± 1.5 µM
CCN1CCCC(Nc2nc(-c3ccccc3)nc3ccc(I)cc23)C1 (stereo not drawn) [Example 2, (1-Ethyl-piperidin-3-yl)-(6-iodo-2-phenyl-quinazolin-4-yl)-amine]	–	9.2 ± 0.8 µM	–
CCN1CCCC(Nc2nc(C(Cl)(Cl)Cl)nc3ccc(Cl)cc23)C1 (stereo not drawn) [Example 3, (1-Ethyl-piperidin-3-yl)-(6-chloro-2-trichloromethyl-quinazolin-4-yl)-amine]	–	14.1 ± 1.5 µM	IC50 [2]: 14.4 ± 1.1 µM
CCN1CCCC(Nc2nc(C(Cl)(Cl)Cl)nc3ccc([N+](=O)[O-])cc23)C1 (stereo not drawn) [Example 4, (1-Ethyl-piperidin-3-yl)-(6-nitro-2-trichloromethyl-quinazolin-4-yl)-amine]	–	29.1 ± 5.4 µM	–
CCN1CCCC(Nc2nc(C(C)(C)C)nc3ccc(I)cc23)C1 (stereo not drawn) [Example 5, (2-tert-Butyl-6-iodo-quinazolin-4-yl)-(1-ethyl-piperidin-3-yl)-amine]	–	17.6 ± 1.7 µM	–
NCCNc1nc(C(Cl)(Cl)Cl)nc2ccc(I)cc12 [Example 6, N-(6-Iodo-2-trichloromethyl-quinazolin-4-yl)-ethane-1,2-diamine hydrochloride]	–	29.6 ± 6 µM	–
CNCCNc1nc(C(Cl)(Cl)Cl)nc2ccc(I)cc12 [Example 7, N-(6-Iodo-2-trichloromethyl-quinazolin-4-yl)-N^1-methyl-ethane-1,2-diamine]	–	22.1 ± 4.8 µM	–
CN(C)CCNc1nc(C(Cl)(Cl)Cl)nc2ccc(I)cc12 [Example 8, N-(6-Iodo-2-trichloromethyl-quinazolin-4-yl)-N^1,N^1-dimethyl-ethane-1,2-diamine]	–	11.1 ± 2.7 µM	–
ClC(Cl)(Cl)c1nc(NCCN2CCCCC2)c2cc(I)ccc2n1 [Example 9]	–	3.7 ± 1.6 µM	–
ClC(Cl)(Cl)c1nc(NCCN2CCOCC2)c2cc(I)ccc2n1 [Example 10, (6-Iodo-2-trichloromethyl-quinazolin-4-yl)-(2-morpholin-4-yl-ethyl)-amine]	–	25.4 ± 4.2 µM	–
CCN1CCCC1CNc1nc(C(Cl)(Cl)Cl)nc2ccc(I)cc12 (stereo not drawn) [Example 11, (1-Ethyl-pyrrolidin-2-yl-methyl)-(6-iodo-2-trichloromethyl-quinazolin-4-yl)-amine]	–	12.4 ± 1 µM	–
ClC(Cl)(Cl)c1nc(NC2CN3CCC2CC3)c2cc(I)ccc2n1 (stereo not drawn) [Example 12, (1 -Aza-bicyclo[2,2,2,]oct-3-yl)-(6-iodo-2-trichloromethyl-quinazolin-4-yl)-amine]	–	11.1 ± 1.7 µM	–
CC(C)N(CCNc1nc(C(Cl)(Cl)Cl)nc2cc(Cl)ccc12)C(C)C [Example 13, N-(7-Chloro-2-trichloromethyl-quinazolin-4-yl)-N',N'-diisopropyl-ethane-1,2-diamine]	–	66.6 ± 11.8 µM	–
O=C(O)CN1CCCC(Nc2nc(C(Cl)(Cl)Cl)nc3ccc(I)cc23)C1 (stereo not drawn) [Example 14, [3-(6-Iodo-2-trichloromethyl-quinazolin-4-yl-amino)-piperidin-1-yl]-acetic acid potassium salt]	–	75.5 ± 11.6 µM	–
CN(C)CC(CN(C)C)Nc1nc(C(Cl)(Cl)Cl)nc2ccc(I)cc12 [Example 16, N'-(6-Iodo-2-trichloromethyl-quinazolin-4-yl)-N,N,N",N"-tetramethyl-propane-1,2,3-triamine monohydrochloride]	–	8.4 ± 1.4 µM	–
CCN1CCCC(Nc2nc(C(F)(F)F)nc3ccc(I)cc23)C1 (stereo not drawn) [Example 17, (1-Ethyl-piperidin-3-yl)-(6-iodo-2-trifluoromethyl-quinazolin-4-yl)-amine]	–	2.3 ± 0.3 µM	–
CC(C)C[C@H](NC(=O)[C@H]1O[C@@H]1C(=O)O)C(=O)NCCCCN=C(N)N [Example E-64]	not inhibited	–	–
CC(C)C[C@H](NC(=O)[C@@H](O)[C@H](N)Cc1ccccc1)C(=O)O [bestatin]	not inhibited	–	–
C[C@H](CS)C(=O)N1CCC[C@H]1C(=O)O [captopril]	not inhibited	–	–
C[C@H](N[C@@H](CCc1ccccc1)C(=O)O)C(=O)N1CCC[C@H]1C(=O)O [enalaprilat]	not inhibited	–	–
CC(=O)N[C@@H](CC(C)C)C(=O)N[C@@H](CC(C)C)C(=O)N[C@H](C=O)CCCNC(=N)N [leupeptin]	not inhibited	–	–
CC(C)CC(=O)N[C@H](C(=O)N[C@H](C(=O)N[C@@H](CC(C)C)[C@@H](O)CC(=O)N[C@@H](C)C(=O)N[C@@H](CC(C)C)[C@@H](O)CC(=O)O)C(C)C)C(C)C [pepstatin A] (Isovaleryl-VV[Sta]A[Sta]-OH)	not inhibited	–	–
CC(C)CC(=O)N[C@H](C(=O)N[C@H](C(=O)N[C@@H](CC(C)C)[C@@H](O)CC(=O)N[C@@H](C)C(=O)N[C@@H](CC(C)C)[C@@H](O)CC(=O)O)C(C)C)C(C)C [pepstatin] (Isovaleryl-VV[Sta]A[Sta]-OH)	–	–	inhibition of ET-1 production [3]: did not inhibit ET-1 production
O=S(=O)(F)Cc1ccccc1 [phenylmethlysulfonyl fluoride]	not inhibited	–	–
O=C(O)CNC(=O)C(CS)Cc1ccccc1 (stereo not drawn) [thiorphan]	not inhibited	–	effect on ECE activity at NEP-blocking concentration ([1]; 100 μM thiorphan or 100 nM phosphoramidon): without affecting the ECE activity; NEP 24.11 inhibition [4]: completely inhibited
B1	–	–	inhibition of the enzyme (in words) [5]: not inhibited
